System: L1210
Assay: Cytotoxicity against mouse L1210 cells after 48 hrs by […] assay
Format: functional, cell-based
Details: L1210, 48 h

Row | Structure (SMILES) | IC50 [µM]
1 | COc1cc2c(c3c1c(=O)c1ccccc1n3C)[C@H](OC(C)=O)[C@H](OC(C)=O)C(C)(C)O2 | 3.7
2 | COc1cc2c(c3c1c(=O)c1ccccc1n3C)[C@@H](OC(C)=O)[C@@H](OC(C)=O)C(C)(C)O2 | 3.1
3 | COc1cc2c(c3c1c(=O)c1ccccc1n3C)C=CC(C)(C)O2 [ACRONINE] | 10.4

Reference: ChEMBL document CHEMBL1141814, “Chiral dihydroxylation of acronycine: absolute configuration of natural cis-1,2-dihydroxy-1,2-dihydroacronycine and cytotoxicity of (1R,2R)- and (1S,2S)-1,2-diacetoxy-1,2-dihydroacronycine” (J Nat Prod, 1999)
